# Values of other authors, collected in patent US20190223486A1, “CATECHIN ABSORPTION ENHANCER FOR ENHANCING CATECHIN ABSORPTION IN SMALL INTESTINAL EPITHELIAL CELLS” (AMOREPACIFIC CORPORATION, priority 2016, published 2019).
# Conditions: in vivo, po
substance,measurement,value
catechin,share of a catechin intake absorbed by the intestines,less than 2%
